Starred links: 1 amine or outer side, 2 acyl side, 3 side chain; linkers in the order of their positions; H or OH if unused. Non-standard residues stand in square brackets, D forms with d. Residues, ends and D or L forms follow the SMILES beside them. *: point of attachment. X1 = CC(N[*:1])C(=O)C(F)(F)C(=O)[*:2]; Boc = CC(C)(C)OC(=O)*
Experiments:
[1] = system: BPAE co-culture clones (cortical stem cells); assay: Inhibition of Notch activation in endothelial co-cultured cortical stem cell clones; format: cell-based, mouse; details: BPAE co-culture clones treated for 6 hours, 50 μM, vs DMSO vehicle
Experimental: γ-secretase inhibitor II (Calbiochem, 50 μM) in DMSO was added to co-cultured cells after 4 days for 6 hours. The same amount of DMSO was used as vehicle control. The cells were then fixed and stained for β-tubulin III and double-labelled for Nestin or β-catenin, and the stained cells were quantified.

[2] = system: cortical stem cell clones; assay: Clonal growth of cortical stem cells with added soluble growth factors (without feeder cells); format: cell-based, mouse; details: for duplication of the effect of endothelial co-culture on clonal growth: factor added at 10-50 ng/ml to serum-free medium with FGF2, no feeder cells
Experimental: Embryonic cerebral cortices and adult SVZ were dissected and dissociated as described (18-20). Single cells were plated into poly-l-lysine-coated 6-well plates (Costar) at clonal density (2000-4000 cells/well) and cultured in basal serum-free medium consisting of DMEM, B27, N2, NAC and 10 ng/ml FGF2 (19,20). To test the effects of soluble growth factors (PDGF, CNTF, TGFβ, IGF1, IL1, IL6, G-CSF, M-CSF, GM-CSF, LIF, BDNF, Steel factor, VEGF or EGF), each factor was added to serum-free medium with FGF2 at a range of 10-50 ng/ml, and clonal growth (cell number and generation of neurons and glia) was assessed (without co-cultured feeder cells). LIF and VEGF were also tested in combination, each added at 10 ng/ml into serum-free medium, with and without FGF2.

Molecule: CCC(C)C(NC(=O)C(NC(=O)OC(C)(C)C)C(C)C)C(=O)NC(C)C(=O)C(F)(F)C(=O)NC(C(=O)NC(C(=O)OC)C(C)CC)C(C)C (centres unmarked) [γ-secretase inhibitor II] (Boc-VI[X1]VI-OMe; configuration not given here)
- β-catenin staining [1]: significantly decreased
- β-tubulin-III staining [1]: significantly increased

Molecule: EGF: soluble growth factor (NSDSECPLSHDGYCLHDGVCMYIEALDKYACNCVVGYIGERCQYRDLKWWELR; Epidermal growth factor; UniProt P01133 971-1023, looked up)
- duplication of the effect of endothelial co-culture on clonal growth [2]: none duplicated the result we see from endothelial co-cultures

Molecule: FGF2: soluble growth factor in basal serum-free medium
- neural stem cell proliferation ([2]; FGF2 alone): promotes neural stem cell proliferation
- neural stem cell self-renewal ([2]; FGF2 alone): cannot alone maintain their self-renewal
- duplication of the effect of endothelial co-culture on clonal growth [2]: none duplicated the result we see from endothelial co-cultures

Molecule: GM-CSF: soluble growth factor
- duplication of the effect of endothelial co-culture on clonal growth [2]: none duplicated the result we see from endothelial co-cultures

Molecule: IGF1: soluble growth factor
- duplication of the effect of endothelial co-culture on clonal growth [2]: none duplicated the result we see from endothelial co-cultures

Molecule: IL6: soluble growth factor
- duplication of the effect of endothelial co-culture on clonal growth [2]: none duplicated the result we see from endothelial co-cultures

Molecule: LIF: soluble growth factor
- duplication of the effect of endothelial co-culture on clonal growth [2]: none duplicated the result we see from endothelial co-cultures

Molecule: PDGF
- duplication of the effect of endothelial co-culture on clonal growth [2]: none duplicated the result we see from endothelial co-cultures

Molecule: Steel factor: soluble growth factor
- duplication of the effect of endothelial co-culture on clonal growth [2]: none duplicated the result we see from endothelial co-cultures

Molecule: TGFβ
- duplication of the effect of endothelial co-culture on clonal growth [2]: none duplicated the result we see from endothelial co-cultures

Molecule: VEGF
- duplication of the effect of endothelial co-culture on clonal growth [2]: Neither factor, alone or in combination, duplicated the effect of endothelial factors
